{"source": "patent US20150374844A1", "about": "“NOVEL PH -SWITCHABLE PEPTIDES FOR MEMBRANE INSERTION AND PORE FORMATION” (UNIVERSITY OF PENNSYLVANIA, priority 2013, published 2015)", "key": {"[1]": {"system": "Red Blood Cells (RBCs)", "experiment": "Human red blood cell hemolysis assay (hemoglobin release)", "procedure": "Human Red Blood hemolysis assay was carried out as described below.\nAbout 5 ml human blood from healthy individuals were transferred into a 50 ml centrifuge tube and either re-suspended in 35 ml buffer pH 5.4 (150 mM NaCl, 20 mM MES) or pH 7.5 (150 mM NaCl, 20 mM Hepes). Red Blood Cells (RBCs) were washed 3 times with the appropriate buffer and finally re-suspended in a total of 50 ml buffer (pH 5.4 or 7.5). For the assay 175 μl of buffer solution (pH 5.4 or 7.5) was added into each well of a clear-bottom 96-well plate followed by 50 μl of re-suspended RBCs (approx. 2.5×10^7 cells) in the appropriate buffer (for RBC transfer wide bore pipet tips were used to avoid cell damage). Test PSPF peptides (New England Peptide TM) at the appropriate concentration were diluted in 25 μl PBS and then added to the cells. All steps were done with chilled buffers and on ice. The suspension was then mixed 6-8 times by pipetting with wide bore tips, the plate was covered and incubated at 37° C. for indicated time.\nAfter incubation the cells were centrifuged for 5 min at 500×g and 150 μl of the supernatant was transferred into a new 96-well clear-bottom plate. Absorbance at 541 nm was measured and hemolysis was normalized to RBCs which have been incubated in the presence of 1% Triton X-100 (100% hemolysis).\nRed blood cell (RBC) lysis assays was used to screen the functional efficacy of the PSPF peptides upon delivery (Table 5). The release of ATP, miRNA and hemoglobin has been studied at both pH 7.5 and 5.4.\nA desirable peptide should also negate membrane disruption, as assessed by leakage of proteins such as hemoglobin at both pH values. Therefore the peptides were first screened for hemolytic activity at both pH 7.5 and pH 5.4."}, "[2]": {"experiment": "siRNA co-transfection assay, cell viability", "assay_type": "cell-based", "parameters": "concentration or dose not given beside the values", "settings": "co-transfection of peptide and siRNA", "description": "The protocol and siRNA reagent (target SSB gene) described in the following publication was followed: Bartz R, Fan H, Zhang J, Innocent N, Cherrin C, Beck S C, Pei Y, Momose A, Jadhav V, Tellers D M, Meng F, Crocker L S, Sepp-Lorenzino L, Barnett S F. Effective siRNA delivery and target mRNA degradation using an amphipathic peptide to facilitate pH-dependent endosomal escape. Biochem J. 2011; 435:475-87."}, "[3]": {"target": "the molecule itself", "experiment": "CD thermal denaturation of the hexamer, Gibbs-Helmholtz fit, pH 5.5", "procedure": "(§1) Furthermore, thermal denaturation by circular dichroism (CD) was used to study the thermal stability of the PSPF-EKG hexamer at multiple concentrations (2 μM, 4 μM and 20 μM), and at both pH 7.4 (FIG. 8A) and pH 5.5 (FIG. 8B). For each pH, to the curves were analyzed according to the Gibbs-Helmholtz Equation, using global least squares fitting of ΔHm, Tm and baselines. Tm was chosen as a global parameter defined with a reference concentration of 4 μM. ΔCp was also included, but over the range of experimental data examed, this parameter was not well defined."}, "[4]": {"target": "the molecule itself", "experiment": "CD thermal denaturation of the hexamer, Gibbs-Helmholtz fit, pH 7.4", "procedure": "as §1"}, "[5]": {"target": "the molecule itself", "experiment": "size exclusion chromatography, self-association, pH 7.4 (Table 7 prints 6.6)", "procedure": "Size exclusion chromatography (SEC) of 100 μM PSPF-EKG and 100 μM PSPF-DKG were measured by AKTA FPLC machine (GE) using a Superdex 75 column (GE) eluted at pH 7.4 (50 mM Tris, 150 mM NaCl) and pH 5.5 (50 mM MES, 150 mM NaCl) respectively, at 25° C. Four standards were used: blue dextran (2,000,000 g/mol), carbonic anhydrase (29,000 g/mol), cytochrome C (12,400 g/mol) and aprotinin (6,500 g/mol). In order to test the effect of salt concentration upon peptide elution, the elutions of PSPF-EKG were also measured at pH 7.4 (50 mM Tris, 2M NaCl) and pH 5.5 (50 mM MES, […]), respectively.\nSize exclusion chromatography—The association state of the PSPF peptide PSPF-EKG was initially investigated by size exclusion chromatography (SEC) using a Superdex 75 column (GE Healthcare) eluted at pH 7.4 (150 mM NaCl, 50 mM Tris) and pH 5.5 (150 mM NaCl, 50 mM MES) respectively. In addition, PSPF-DKG was also investigated to determine the effect of substituting Asp for Glu on the stability of the water-soluble bundle at each pH. To determine the approximate oligomerization states, four standards were used, shown by blue eluting peaks in FIG. 4: blue dextran (2,000,000 g/mol), carbonic anhydrase (29,000 g/mol), cytochrome C (12,400 g/mol) and aprotinin (6,500 g/mol)."}, "[6]": {"settings": "pH 5.4, compared to triton-x-100"}, "[7]": {"settings": "pH 7.5, compared to triton-x-100"}}, "note": "No end group written: not given here.", "data": [{"molecule": "WSDLAKALSDLAKALSDLAKALSDLAKA [PSPF-DKA, WSDLAKA LSDLAKA LSDLAKA LSDLAKA]", "values": [{"measurement": "Hemoglobin Release", "setting": "[1]; [6]", "value": "none"}, {"measurement": "Hemoglobin Release", "setting": "[1]; [7]", "value": "none"}, {"measurement": "viability", "setting": "[2]", "value": 101, "unit": "%"}]}, {"molecule": "WSDLAKGLSDLAKGLSDLAKGLSDLAKG [PSPF-DKG, WSDLAKG LSDLAKG LSDLAKG LSDLAKG]", "values": [{"measurement": "Hemoglobin Release", "setting": "[1]; [6]", "value": "none"}, {"measurement": "Hemoglobin Release", "setting": "[1]; [7]", "value": "none"}, {"measurement": "viability", "setting": "[2]", "value": 104, "unit": "%"}]}, {"molecule": "WSDLAQALSDLAQALSDLAQALSDLAQA [PSPF-DQA, WSDLAQA LSDLAQA LSDLAQA LSDLAQA]", "values": [{"measurement": "Hemoglobin Release", "setting": "[1]; [6]", "value": "none"}, {"measurement": "Hemoglobin Release", "setting": "[1]; [7]", "value": "none"}, {"measurement": "viability", "setting": "[2]", "value": 100, "unit": "%"}]}, {"molecule": "WSDLAQGLSDLAQGLSDLAQGLSDLAQG [PSPF-DQG, WSDLAQG LSDLAQG LSDLAQG LSDLAQG]", "values": [{"measurement": "Hemoglobin Release", "setting": "[1]; [6]", "value": "none"}, {"measurement": "Hemoglobin Release", "setting": "[1]; [7]", "value": "none"}, {"measurement": "viability", "setting": "[2]", "value": 98, "unit": "%"}]}, {"molecule": "WSELAKALSELAKALSELAKALSELAKA [PSPF-EKA, WSELAKA LSELAKA LSELAKA LSELAKA]", "values": [{"measurement": "Hemoglobin Release", "setting": "[1]; pH 5.4", "value": "none"}, {"measurement": "Hemoglobin Release", "setting": "[1]; pH 7.5", "value": "none"}, {"measurement": "viability", "setting": "[2]", "value": 105, "unit": "%"}]}, {"molecule": "WSELAKGLSELAKGLSELAKGLSELAKG [PSPF-EKG, WSELAKG LSELAKG LSELAKG LSELAKG]", "values": [{"measurement": "viability", "setting": "[2]", "value": 102, "unit": "%"}]}, {"molecule": "WSELAQALSELAQALSELAQALSELAQA [PSPF-EQA, WSELAQA LSELAQA LSELAQA LSELAQA]", "values": [{"measurement": "Hemoglobin Release", "setting": "[1]; pH 5.4", "value": "none"}, {"measurement": "Hemoglobin Release", "setting": "[1]; pH 7.5", "value": "none"}, {"measurement": "viability", "setting": "[2]", "value": 103, "unit": "%"}]}, {"molecule": "WSELAQGLSELAQGLSELAQGLSELAQG [PSPF-EQG, WSELAQG LSELAQG LSELAQG LSELAQG]", "values": [{"measurement": "Hemoglobin Release", "setting": "[1]; pH 5.4", "value": "none"}, {"measurement": "Hemoglobin Release", "setting": "[1]; pH 7.5", "value": "none"}, {"measurement": "viability", "setting": "[2]", "value": 105, "unit": "%"}]}, {"molecule": "WSHLAKALSHLAKALSHLAKALSHLAKA [PSPF-HKA, WSHLAKA LSHLAKA LSHLAKA LSHLAKA]", "values": [{"measurement": "Hemoglobin Release", "setting": "[1]; pH 5.4", "value": "none"}, {"measurement": "Hemoglobin Release", "setting": "[1]; pH 7.5", "value": "none"}, {"measurement": "viability", "setting": "[2]", "value": 97, "unit": "%"}]}, {"molecule": "WSHLAKGLSHLAKGLSHLAKGLSHLAKG [PSPF-HKG, WSHLAKG LSHLAKG LSHLAKG LSHLAKG]", "values": [{"measurement": "Hemoglobin Release", "setting": "[1]; pH 5.4", "value": "none"}, {"measurement": "Hemoglobin Release", "setting": "[1]; pH 7.5", "value": "none"}, {"measurement": "viability", "setting": "[2]", "value": 102, "unit": "%"}]}, {"molecule": "WSHLAQALSHLAQALSHLAQALSHLAQA [PSPF-HQA, WSHLAQA LSHLAQA LSHLAQA LSHLAQA]", "values": [{"measurement": "Hemoglobin Release", "setting": "[1]; pH 5.4", "value": "none"}, {"measurement": "Hemoglobin Release", "setting": "[1]; pH 7.5", "value": "none"}, {"measurement": "viability", "setting": "[2]", "value": 105, "unit": "%"}]}, {"molecule": "WSHLAQGLSHLAQGLSHLAQGLSHLAQG [PSPF-HQG, WSHLAQG LSHLAQG LSHLAQG LSHLAQG]", "values": [{"measurement": "Hemoglobin Release", "setting": "[1]; pH 5.4", "value": "none"}, {"measurement": "Hemoglobin Release", "setting": "[1]; pH 7.5", "value": "none"}, {"measurement": "viability", "setting": "[2]", "value": 104, "unit": "%"}]}, {"molecule": "WSELAKGLSELAKGLSELAKGLSELAKG", "note": "[PSPF-EKG]", "values": [{"measurement": "[PSPF-EKG] at 50% fold and 300 K", "setting": "[3]", "value": 0.31, "unit": "µM"}, {"measurement": "[PSPF-EKG] at 50% fold and 300 K", "setting": "[4]", "value": 0.14, "unit": "µM"}, {"measurement": "apparent molecular weight, fold of calculated molecular weight", "setting": "[5]", "value": 6.5, "unit": "fold"}]}]}
